# In patent publication EP4803159A2, “CONJUGATE OF SALICYLIC ACID AND PEPTIDE” (Caregen Co., Ltd., priority 2017, dated 2018):
# What was measured:
# [1] = test system: TNF-a, IL-6, IL-1b, and COX-2; experiment: Anti-inflammatory effect, Propionibacterium acnes-induced inflammatory cytokine mRNA expression in keratinocytes (RT-PCR); format: cell-based; details: keratinocyte, 50 µg/ml Propionibacterium acnes, 50 µM compound, 24 hours; FIG. 8
# Method: Anti-inflammatory effects of the compounds of the present disclosure were examined using Propionibacterium acnes. To this end, keratinocyte was seeded in a 6-well plate at a density of 300,000 cells per well, and then incubated in a DMEM culture medium (Gibco, USA) containing 10% FBS for 24 hours under conditions of 37°C and 5% CO2. After replacing the medium by a fresh medium, the cells were treated with 50 µg/ml of Propionibacterium acnes, and then the treated Propionibacterium acnes was treated with each 50 µM of the compound 1 and the compound 3 of the present disclosure and salicylic acid used as the positive control, followed by incubation for 24 hours under the same conditions as above. RNA was isolated from the cells, and cDNA was synthesized using a cDNA synthesis kit (Intron, Korea). PCR premix (Intron, Korea) and primers for each of TNF-a, IL-6, IL-1b, and COX-2 in Table 3 below were used to perform PCR. mRNA levels of TNF-a, IL-6, IL-1b and COX-2 were determined by 5% agarose gel electrophoresis.
# [2] = distilled water, concentration of 10 mg/ml; FIG. 1
# [3] = test system: HaCaT keratinocyte cell line; experiment: Keratinocyte growth, sulforhodamine B (SRB) colorimetric assay; format: cell-based; details: 50 µM, 72 hours, serum-free medium, SRB absorbance at 560 nm, FIG. 2B
# Method: To analyze growth factor-like efficacy and inhibitory efficacy of the compounds synthesized in Example <1-2>, a sulforhodamine B (SRB Sigma) colorimetric assay was performed using a HaCaT keratinocyte cell line (Korean Cell Line Bank) in accordance with a method of Rizzino, et al. (Cancer Res. 48:4266(1988))
# HaCaT keratinocyte cell line was seeded in a 96-well plate at a density of 3,000 cells per well, and then cultured in Dulbecco's modified Eagle's medium (DMEM, Gibco, USA) containing 10% fetal bovine serum (FBS, Sigma) for 24 hours under conditions of 37°C and 5% CO2. The cultured cell line was detached from the bottom of the culture plate using a 1% trypsin solution, and only cell precipitate was collected by centrifugation. The cell precipitate was suspended in DMEM without FBS, and then cultured for 24 hours under conditions of 37°C and 5% CO2. 24 hours later, the medium was replaced by the same medium from which serum was completely removed. A blank sample in which the cell precipitate was dissolved sterile in 10% DMSO was prepared for standardization. Each of the compound 1 to the compound 4 (50 µM) of the present disclosure, salicylic acid (50 µM), and EGF (100 nM) as a positive control were treated. Incubation was carried out under the same conditions as above for 72 hours. […] Absorbance at UV 560 nm was measured to determine cell viability.
structure (smiles),measurement,setting,value
"O=C(O)c1ccccc1O [salicylic acid, 2-hydroxybenzoic acid]",expression of inflammatory cytokines induced by Propionibacterium acnes,[1],hardly inhibited expression
same,solubility in water,[2],hardly dissolved in water
same,growth of keratinocytes,[3],inhibited growth of keratinocytes due to toxicity
